Test results taken from a melting point compilation (Tetko et al.; mined from patent text by program, amines drawn as free bases though some values may be those of a salt).

| SMILES | melting point [°C] |
| --- | --- |
| Cc1cc(Oc2ccc(N)cc2)ccc1-c1ccc(Oc2ccc(N)cc2)cc1C | 140 |
| COc1c(C2=NC(C)(C)CO2)ccc(C2=NC(C)(C)CO2)c1OC | 84.5 to 85.5 |
| COC1=C(OC)C(=O)c2c(NC(C)=O)cccc2C1=O | 162 to 163 |
| O=C1C[C@H](NC(=O)C(F)(F)F)C(=O)O1 | 116 to 118 |
| COC(=O)c1nc2c(c(SC)nn2-c2ccccc2)c(N)c1C(=O)OC | 120 to 122 |
| CCNC(=O)c1c([Si](C)(C)C)ccc(-c2ccccc2)c1Cl | 134 to 135 |
| N#Cc1ccc(-c2cn(-c3ccc(C#N)cc3)c(SCC(O)CO)n2)cc1 (stereo unspecified) | 190 to 195 |
| CCC1(C)CC2(NC(=O)N(Cc3ccc(CN4C(=O)NC5(CC(C)(CC)NC(C)(CC)C5C)C4=O)cc3)C2=O)C(C)C(C)(CC)N1 (stereo unspecified) | 272 to 274 |
| COc1ccc(C2=NN(C3CCOCC3)C(=O)[C@H]3CC=CC[C@@H]23)cc1OC1CCCC1 (relative stereo) | 116 to 117 |
| O=[N+]([O-])c1ccc(CSc2ccc(Cl)cc2)cc1 | 66 to 68 |
| CNc1c(F)cc2c(=O)c(C(=O)O)cn(-c3cc(N)c(F)cc3F)c2c1C | 225 to 228 |
| COc1ccc(N(c2nc(N)nc(NC3CC3)n2)C2CC2)cc1F | 91 to 92 |
| Nc1nc(-c2cccnc2Cl)c(-c2cccnc2Cl)o1 | 243 to 244 |
| O=S(=O)(Cl)c1cc(S(=O)(=O)Cl)c2cc(S(=O)(=O)Cl)cc(S(=O)(=O)Cl)c2c1 | 263 to 270 |
| COc1cc2c(CC#N)c[nH]c2cc1F | 97 to 98 |
| COc1ccc(N(CC(=O)O)c2ccccc2)c(C(=O)O)c1 | 158 to 161 |
| O=C1c2cccc3c2N(CC3)c2ccccc2N1CC#CCN1CCCC1 | 80 to 81 |
| COc1ccc(C(=O)Nc2cccnc2)c2c1oc1ccccc12 | 226 |
| Cn1c2ccccc2c2cc(NC(=O)c3ccccc3Cl)ccc21 | 206 |
| O=C(O)c1cc2n(n1)CCC2 | 140 to 145 |
| N#Cc1ccc2c(c1)Sc1cc3c(cc1C=C2)CCC3 | 142 to 143 |
| COC(=O)c1ccc2c(c1)C(=O)C1(CC1)O2 | 89 to 91 |
| Cc1c(Cl)cccc1N1C(=O)CN(c2ccccc2)C1=S | 154 to 156 |
| O=c1c2c(O)cc(O)cc2ncn1-c1ccc(O)cc1 | 240 to 245 |
| Cc1ccc2c(c1)c(=O)oc(=O)n2C | 153 |
| O=Cc1c(-c2ccccc2)nn(-c2ccccc2)c1-c1ccccc1 | 159 to 160 |

| SMILES | melting point [°C] |
| --- | --- |
| CC(C)CNC(=O)C(C)NC(=O)C(C)NC(=O)C(C)NC(=O)CCC(=O)O (stereo unspecified) | 283 to 286 |
| O=C(c1ccccc1)c1ccc2sc(NCCO)nc2c1 | 159 |
| COc1ccc2c3c1c(C)c(-c1ccc(O)cc1)n3CC(CCN1CCN(c3cc(C)ccn3)CC1)O2 (stereo unspecified) | 193 to 195 |
| Cc1nnc(-c2ccc3c(=O)n(CC(C)C)c(CN)c(-c4ccccc4)c3c2)o1 | 179 to 181 |
| CC(C)(C)c1nc(N)n(-c2c(Cl)cc(C(F)(F)F)cc2Cl)n1 | 208 to 212 |
| O=C(O)Cc1ccc(C(=O)c2ccccc2)cc1[N+](=O)[O-] | 168 to 170 |
| O=C(O)[C@@H]1CN(C(=O)OCc2ccccc2)CCN1C(=O)N1c2ccccc2CCc2ccccc21 | 185 |
| CCCCn1c(=O)c2c(NC)n[nH]c2n(CCO)c1=O | 248 to 253 |
| C#Cc1cnn2c(C3CC3)cc(-c3ccc(Cl)c(Cl)c3)nc12 | 194 to 196 |
| CCCn1nc2c(N)nc3ccccc3c2c1CCCc1cc[nH]c1 | 173 to 174 |
| CN(C(=O)c1ccc2nonc2c1)[C@H]1CC[C@H](N)CC1 | 145 to 146 |
| CCCCCCCOC1CCC(=O)N1 (stereo unspecified) | 52 to 54 |
| CC(C)(C)OC(=O)Nc1ccc(Nc2ncnc3[nH]cc(C(=O)c4ccccc4)c23)cc1 | 274 to 280 |
| O=c1[nH]c2ncc(-c3ccc(-c4nc[nH]n4)cc3)nc2n1CCC1CCOCC1 | 263 to 266 |
| CCCN(CCC)C(=O)CNc1nc(-c2ccccc2)ncc1CO | 167 to 168 |
| CS(=O)(=O)c1cccc(Cc2cc3cccc(-c4cccc(C(=O)NCC(N)=O)c4)c3s2)c1 | 189 to 193 |
| CC(=O)CN1C(=O)C(NC(=O)Nc2cccc(-c3nnn[nH]3)c2)N=C(c2ccccc2F)c2cccc(C)c21 (stereo unspecified) | 174 to 190 |
| O=[N+]([O-])c1ccc(OC2CCCC2)cc1NC1CCCCC1 | 98 |
| O=C(O)C=CC1CC1(c1cccc(C(F)(F)F)c1)c1cccc(C(F)(F)F)c1 (stereo unspecified) | 147 to 148 |
| Cc1cc(-n2cncn2)cc(I)c1N | 151 to 154 |
| Nc1ccnc(/C=C/c2ccccc2)c1 | 164 to 165 |
| C[C@]1(F)C(=O)O[C@H](COC(=O)c2ccc(Cl)cc2)[C@H]1OC(=O)c1ccc(Cl)cc1 | 138 to 141 |
| C=C(C#N)CCC(=O)O | 26.5 to 27 |
| O=C(O)[C@H]1[C@H](CS)N(Cc2ccccc2)C(=O)N1Cc1ccccc1 | 159 to 160 |
| Cc1cc(C#CC2CC2)cc(C)c1Oc1ccc([N+](=O)[O-])c(Nc2ccc(C#N)cc2)n1 | 188 to 192 |
